Laboratory results reported in BindingDB's records for doi:10.1016/s0960-894x(00)00348-6 (Smithkline Beecham Pharmaceuticals, 2000).
pIC50: −log10 of the molar value.

Target: Tyrosyl-tRNA synthetase (Staphylococcus aureus)
Experiment: Inhibitory activity of compound against tyrosyl tRNA synthetase from Staphylococcus aureus was determined

- pIC50: 7.68
SMILES: N[C@@H](Cc1ccc(O)cc1)C(=O)N[C@@H](C(=O)O)[C@H]1[C@H](O)[C@@H](O)[C@@H](O)CN1O [(R)-[(S)-2-Amino-3-(4-hydroxy-phenyl)-propionylamino]-((2S,3S,4S,5S)-1,3,4,5-tetrahydroxy-piperidin-2-yl)-acetic acid]
